Data published in patent publication US20240150298A1, “ANTIBACTERIAL COMPOUNDS” (Blacksmith Medicines, Inc., priority 2021, published 2024).
Converted amounts (≈) assume the structure as drawn.

Columns and labels:
Assay in all cases: Bacterial susceptibility testing, MIC by broth microdilution (CLSI)
Assay type in all cases: cell-based
K. pneumoniae ATCC13883 = conditions: 35° C., 18-24 h; for MIC: Klebsiella pneumoniae, ATCC13883, broth microdilution, read-out: MIC K. pneumoniae ATCC13883
Method: (§1) Minimal inhibitory concentrations (MIC) were determined by the broth microdilution method in accordance with the Clinical and Laboratory Standards Institute (CLSI) guidelines. In brief, organism suspensions were adjusted to a final inoculum between 3×10^5 and 7×10^5 colony-forming units (CFU)/mL. Drug dilutions and inocula were made in sterile, cation adjusted Mueller-Hinton Broth (Beckton Dickinson). In wells, an inoculum volume of 100 μL was mixed to 2 μL of DMSO with 2-fold serial dilutions of drug. All inoculated microdilution trays were incubated in ambient air at 35° C. for 18-24 h. Following incubation, the lowest concentration of the drug that prevented visible growth (OD600 nm<0.05) was recorded as the MIC. Performance of the assay was monitored by the use of laboratory quality-control strains and compounds with defined MIC spectrum, in accordance with CLSI guidelines.

E. coli ATCC25922 = conditions: 35° C., 18-24 h; for MIC: Escherichia coli, ATCC25922, broth microdilution, read-out: MIC E. coli ATCC25922
Method: as §1

P. aeruginosa ATCC27835 = conditions: Pseudomonas aeruginosa, ATCC27835, broth microdilution, 35° C., 18-24 h; read-out: MIC P. aeruginosa ATCC27835
Method: as §1

P. aeruginosa 209 PAO1 = conditions: Pseudomonas aeruginosa, PAO1, broth microdilution, 35° C., 18-24 h; read-out: MIC P. aeruginosa 209 PAO1
Method: as §1

SMILES	MIC K. pneumoniae ATCC13883 (K. pneumoniae ATCC13883; broth microdilution)	MIC E. coli ATCC25922 (E. coli ATCC25922; broth microdilution)	MIC (P. aeruginosa ATCC27835)	MIC (P. aeruginosa 209 PAO1)	MIC (K. pneumoniae ATCC13883)	MIC (E. coli ATCC25922)
C[C@H](O)c1nccn1[C@@H](/C=C/c1ccc(-c2ccc(OCC(N)CO)cc2)cc1)CO (mixture of isomers) [Compound 8, (2S,E)-4-(4′-(2-amino-3-hydroxypropoxy)-[1,1′-biphenyl]-4-yl)-2-(2-((S)-1-hydroxyethyl)-1H-imidazol-1-yl)but-3-en-1-ol]	64 µg/mL (≈ 151 µM)	16 µg/mL (≈ 37.8 µM)	4 µg/mL (≈ 9.44 µM)	4 µg/mL (≈ 9.44 µM)	–	–
C[C@H](O)c1nccn1[C@@H](/C=C/c1ccc(-c2ccc(O[C@H]3C[C@@H]3N)cc2)cc1)CO (racemic) [Compound 13, (S,E)-4-(4′-((trans)-2-aminocyclopropoxy)-[1,1′-biphenyl]-4-yl)-2-(2-((S)-1-hydroxyethyl)-1H-imidazol-1-yl)but-3-en-1-ol]	–	–	16 µg/mL (≈ 39.5 µM)	2 µg/mL (≈ 4.93 µM)	4 µg/mL (≈ 9.86 µM)	4 µg/mL (≈ 9.86 µM)
C[C@H](O)c1nccn1[C@@H](/C=C/c1ccc(-c2ccc(CO[C@H]3C[C@H]3N)cc2)cc1)CO (racemic) [Compound 16, (S,E)-4-(4′-(((cis)-2-aminocyclopropoxy)methyl)-[1,1′-biphenyl]-4-yl)-2-(2-((S)-1-hydroxyethyl)-1H-imidazol-1-yl)but-3-en-1-ol]	–	–	4 µg/mL (≈ 9.53 µM)	2 µg/mL (≈ 4.77 µM)	8 µg/mL (≈ 19.1 µM)	2 µg/mL (≈ 4.77 µM)
C[C@H](O)c1nccn1[C@@H](/C=C/c1ccc(-c2ccc(OCC(O)CN(C)C)cc2)cc1)CO (mixture of isomers) [Compound 21, (2S,E)-4-(4′-(3-(dimethylamino)-2-hydroxypropoxy)-[1,1′-biphenyl]-4-yl)-2-(2-((S)-1-hydroxyethyl)-1H-imidazol-1-yl)but-3-en-1-ol]	–	–	4 µg/mL (≈ 8.86 µM)	8 µg/mL (≈ 17.7 µM)	64 µg/mL (≈ 142 µM)	16 µg/mL (≈ 35.4 µM)
C[C@H](O)c1nccn1[C@@H](/C=C/c1ccc(-c2ccc(OCC(O)CN)cc2)cc1)CO (mixture of isomers) [Compound 22, (2S,E)-4-(4′-(3-amino-2-hydroxypropoxy)-[1,1′-biphenyl]-4-yl)-2-(2-((S)-1-hydroxyethyl)-1H-imidazol-1-yl)but-3-en-1-ol]	–	–	2 µg/mL (≈ 4.72 µM)	4 µg/mL (≈ 9.44 µM)	64 µg/mL (≈ 151 µM)	16 µg/mL (≈ 37.8 µM)
C[C@H](O)c1nccn1[C@@H](/C=C/c1ccc(-c2ccc(OCCC(O)CO)cc2)cc1)CO (mixture of isomers) [Compound 43, 4-((4′-((S,E)-4-hydroxy-3-(2-((S)-1-hydroxyethyl)-1H-imidazol-1-yl)but-1-en-1-yl)-[1,1′-biphenyl]-4-yl)oxy)butane-1,2-diol]	–	–	2 µg/mL (≈ 4.56 µM)	2 µg/mL (≈ 4.56 µM)	2 µg/mL (≈ 4.56 µM)	–
C[C@H](O)c1nccn1[C@@H](/C=C/c1ccc(-c2ccc(OC[C@H](N)CO)cc2)cc1)CO (single isomer, unassigned) [Compound 9]	–	–	2 µg/mL (≈ 4.72 µM)	2 µg/mL (≈ 4.72 µM)	–	–
C[C@H](O)c1nccn1[C@@H](/C=C/c1ccc(-c2ccc(OC[C@@H](N)CO)cc2)cc1)CO (single isomer, unassigned) [Compound 10]	–	–	2 µg/mL (≈ 4.72 µM)	1 µg/mL (≈ 2.36 µM)	16 µg/mL (≈ 37.8 µM)	8 µg/mL (≈ 18.9 µM)
C[C@H](O)c1nccn1[C@@H](/C=C/c1ccc(-c2ccc(O[C@@H]3C[C@H]3N)cc2)cc1)CO (single isomer, unassigned) [Compound 15]	–	–	2 µg/mL (≈ 4.93 µM)	0.5 µg/mL (≈ 1.23 µM)	–	0.5 µg/mL (≈ 1.23 µM)
C[C@H](O)c1nccn1C/C=C/c1ccc(-c2ccc(OCCN3CCN(CCN)CC3)cc2)cc1 [Compound 5, (S,E)-1-(1-(3-(4′-(2-(4-(2-aminoethyl)piperazin-1-yl)ethoxy)-[1,1′-biphenyl]-4-yl)allyl)-1H-imidazol-2-yl)ethan-1-ol]	–	–	4 µg/mL (≈ 8.41 µM)	4 µg/mL (≈ 8.41 µM)	4 µg/mL (≈ 8.41 µM)	2 µg/mL (≈ 4.2 µM)
C[C@H](O)c1nccn1C/C=C/c1ccc(-c2ccc(OCCN3CC(CN)C3)cc2)cc1 [Compound 6, (S,E)-1-(1-(3-(4′-(2-(3-(aminomethyl)azetidin-1-yl)ethoxy)-[1,1′-biphenyl]-4-yl)allyl)-1H-imidazol-2-yl)ethan-1-ol]	–	–	4 µg/mL (≈ 9.25 µM)	4 µg/mL (≈ 9.25 µM)	16 µg/mL (≈ 37 µM)	4 µg/mL (≈ 9.25 µM)
C[C@H](O)c1nccn1C/C=C/c1ccc(-c2ccc(OCC3(N)CC3)cc2)cc1 [Compound 7, (S,E)-1-(1-(3-(4′-((1-aminocyclopropyl)methoxy)-[1,1′-biphenyl]-4-yl)allyl)-1H-imidazol-2-yl)ethan-1-ol]	–	–	4 µg/mL (≈ 10.3 µM)	2 µg/mL (≈ 5.13 µM)	0.25 µg/mL (≈ 0.642 µM)	0.25 µg/mL (≈ 0.642 µM)
C[C@H](O)c1nccn1[C@@H](/C=C/c1ccc(-c2ccc(OC3CN(CCO)C3)cc2)cc1)CO [Compound 20, (S,E)-2-(2-((S)-1-hydroxyethyl)-1H-imidazol-1-yl)-4-(4′-((1-(2-hydroxyethyl)azetidin-3-yl)oxy)-[1,1′-biphenyl]-4-yl)but-3-en-1-ol]	–	–	2 µg/mL (≈ 4.45 µM)	2 µg/mL (≈ 4.45 µM)	–	4 µg/mL (≈ 8.9 µM)
C[C@H](O)c1nccn1[C@@H](/C=C/c1ccc(-c2ccc(OC[C@H](O)CO)cc2)cc1)CO [Compound 23, (R)-3-((4′-((S,E)-4-hydroxy-3-(2-((S)-1-hydroxyethyl)-1H-imidazol-1-yl)but-1-en-1-yl)-[1,1′-biphenyl]-4-yl)oxy)propane-1,2-diol]	–	–	4 µg/mL (≈ 9.42 µM)	4 µg/mL (≈ 9.42 µM)	16 µg/mL (≈ 37.7 µM)	8 µg/mL (≈ 18.8 µM)
COC[C@H](N)COc1ccc(-c2ccc(/C=C/[C@@H](CO)n3ccnc3[C@H](C)O)cc2)cc1 [Compound 31, (2S,E)-4-(4′-(2-amino-3-methoxypropoxy)-[1,1′-biphenyl]-4-yl)-2-(2-((S)-1-hydroxyethyl)-1H-imidazol-1-yl)but-3-en-1-ol]	–	–	4 µg/mL (≈ 9.14 µM)	1 µg/mL (≈ 2.29 µM)	4 µg/mL (≈ 9.14 µM)	2 µg/mL (≈ 4.57 µM)
C[C@H](O)c1nccn1[C@@H](/C=C/c1ccc(-c2ccc(C3CC(NCc4cocn4)C3)cc2)cc1)CO (stereo partly drawn) [Compound 40, (S,E)-2-(2-((S)-1-hydroxyethyl)-1H-imidazol-1-yl)-4-(4′-(3-((oxazol-4-ylmethyl)amino)cyclobutyl)-[1,1′-biphenyl]-4-yl)but-3-en-1-ol]	–	–	2 µg/mL (≈ 4.13 µM)	2 µg/mL (≈ 4.13 µM)	1 µg/mL (≈ 2.06 µM)	–
C[C@H](O)c1nccn1[C@@H](/C=C/c1ccc(-c2ccc(C3CC(NC(C#N)CO)C3)cc2)cc1)CO (stereo partly drawn) [Compound 41, 3-hydroxy-2-((3-(4′-((S,E)-4-hydroxy-3-(2-((S)-1-hydroxyethyl)-1H-imidazol-1-yl)but-1-en-1-yl)-[1,1′-biphenyl]-4-yl)cyclobutyl)amino)propanenitrile]	–	–	2 µg/mL (≈ 4.23 µM)	2 µg/mL (≈ 4.23 µM)	2 µg/mL (≈ 4.23 µM)	–
C[C@H](O)c1nccn1[C@@H](/C=C/c1ccc(-c2ccc(C3CC(NCc4ncon4)C3)cc2)cc1)CO (stereo partly drawn) [Compound 42, (S,E)-4-(4′-(3-(((1,2,4-oxadiazol-3-yl)methyl)amino)cyclobutyl)-[1,1′-biphenyl]-4-yl)-2-(2-((S)-1-hydroxyethyl)-1H-imidazol-1-yl)but-3-en-1-ol]	–	–	4 µg/mL (≈ 8.24 µM)	4 µg/mL (≈ 8.24 µM)	0.5 µg/mL (≈ 1.03 µM)	–
C[C@H](O)c1nccn1[C@@H](/C=C/c1ccc(-c2ccc(C3CC(NCC(=O)O)C3)cc2)cc1)CO (stereo partly drawn) [Compound 44, (3-(4′-((S,E)-4-hydroxy-3-(2-((S)-1-hydroxyethyl)-1H-imidazol-1-yl)but-1-en-1-yl)-[1,1′-biphenyl]-4-yl)cyclobutyl)glycine]	–	–	4 µg/mL (≈ 8.67 µM)	4 µg/mL (≈ 8.67 µM)	8 µg/mL (≈ 17.3 µM)	4 µg/mL (≈ 8.67 µM)
C[C@H](O)c1nccn1[C@@H](/C=C/c1ccc(-c2ccc(C3CC(NCC(F)(F)CO)C3)cc2)cc1)CO (stereo partly drawn) [Compound 45, (S,E)-4-(4′-(3-((2,2-difluoro-3-hydroxypropyl)amino)cyclobutyl)-[1,1′-biphenyl]-4-yl)-2-(2-((S)-1-hydroxyethyl)-1H-imidazol-1-yl)but-3-en-1-ol]	–	–	4 µg/mL (≈ 8.04 µM)	4 µg/mL (≈ 8.04 µM)	0.5 µg/mL (≈ 1 µM)	0.25 µg/mL (≈ 0.502 µM)
C[C@H](O)c1nccn1[C@@H](/C=C/c1ccc(-c2ccc(C3CC(NC[C@@H]4CNC(=O)O4)C3)cc2)cc1)CO (stereo partly drawn) [Compound 46, (R)-5-(((3-(4′-((S,E)-4-hydroxy-3-(2-((S)-1-hydroxyethyl)-1H-imidazol-1-yl)but-1-en-1-yl)-[1,1′-biphenyl]-4-yl)cyclobutyl)amino)methyl) oxazolidin-2-one]	–	–	4 µg/mL (≈ 7.96 µM)	4 µg/mL (≈ 7.96 µM)	2 µg/mL (≈ 3.98 µM)	0.5 µg/mL (≈ 0.995 µM)
C[C@H](O)c1nccn1[C@@H](/C=C/c1ccc(-c2ccc(C3CC(NCc4noc(C(N)=O)n4)C3)cc2)cc1)CO (stereo partly drawn) [Compound 47, 3-(((3-(4′-((S,E)-4-hydroxy-3-(2-((S)-1-hydroxyethyl)-1H-imidazol-1-yl)but-1-en-1-yl)-[1,1′-biphenyl]-4-yl)cyclobutyl)amino)methyl)-1,2,4-oxadiazole-5-carboxamide]	–	–	4 µg/mL (≈ 7.57 µM)	4 µg/mL (≈ 7.57 µM)	1 µg/mL (≈ 1.89 µM)	0.5 µg/mL (≈ 0.946 µM)
C[C@H](O)c1nccn1[C@@H](/C=C/c1ccc(-c2ccc(C3CC(N)C3)cc2)cc1)CO (stereo partly drawn) [Compound 48, (S,E)-4-(4′-(3-aminocyclobutyl)-[1,1′-biphenyl]-4-yl)-2-(2-((S)-1-hydroxyethyl)-1H-imidazol-1-yl)but-3-en-1-ol]	–	–	2 µg/mL (≈ 4.96 µM)	2 µg/mL (≈ 4.96 µM)	16 µg/mL (≈ 39.7 µM)	2 µg/mL (≈ 4.96 µM)
